Test results taken from ChEMBL document CHEMBL4414627, “Ealamines A-H, a Series of Naphthylisoquinolines with the Rare 7,8'-Coupling Site, from the Congolese Liana Ancistrocladus ealaensis, Targeting Pancreatic Cancer Cells” (J Nat Prod, 2019).
The source made the active and inactive calls. The calls are words filed in the database; no cut-off is given here.

Legend:
PANC-1 [1] = assay: Cytotoxicity against nutrient deprived human PANC1 cells assessed as induction of cell killing incubated for 24 hrs by WST-8 assay; format: functional
PANC-1 [2] = assay: Cytotoxicity against DMEM cultured human PANC1 cells assessed as reduction in cell viability at PC50 incubated for 24 hrs by WST-8 assay; format: cell-based; settings: panc-1, 24 h
Plasmodium falciparum [3] = assay: Antiprotozoal activity against chloroquine and pyrimethamine-resistant erythrocytic stage of Plasmodium falciparum K1 assessed as reduction in [3H]hypoxanthine incorporation preincubated for 48 hrs followed by [3H]hypoxanthine addition and measured after 24 hrs by liquid scintillation counting method; format: functional, organism-based
Plasmodium falciparum [4] = assay: Antiprotozoal activity against chloroquine-sensitive Plasmodium falciparum NF54; format: functional, organism-based
Trypanosoma cruzi = assay: Antiprotozoal activity against Trypanosoma cruzi Tulahuen C4 amastigotes infected in rat L6 cells incubated for 96 hrs by beta-galactosidase reporter gene assay; format: functional, organism-based
[5] = system: Trypanosoma brucei rhodesiense; assay: Antiprotozoal activity against Trypanosoma brucei rhodesiense STIB900 trypomastigotes incubated for 72 hrs by Alamar blue staining-based fluorometric analysis; format: functional, organism-based
Leishmania donovani = assay: Antiprotozoal activity against Leishmania donovani MHOM-ET-67/L82 axenic amastigotes incubated for 72 hrs by Alamar blue staining-based fluorometric analysis; format: functional, organism-based
L6 = assay: Cytotoxicity against rat L6 cells assessed as reduction in cell viability incubated for 72 hrs by Alamar blue staining-based fluorometric analysis
[6] = Selectivity index, ratio of IC50 for rat L6 cells to IC50 for chloroquine and pyrimethamine-resistant erythrocytic stage of Plasmodium falciparum K1; format: toxicity; settings: for selectivity ratio: L6 cells, read-out: Ratio IC50
[7] = Selectivity index, ratio of IC50 for rat L6 cells to IC50 for chloroquine-sensitive Plasmodium falciparum NF54; format: toxicity; settings: read-out: Ratio IC50
PANC-1 [8] = assay: Induction of cell morphological changes in nutrient deprived human PANC1 cells incubated for 24 hrs by acridine orange/ethidium bromide double staining-based fluorescence/phase contrast mode based EVOS FL digital microscopic analysis; format: functional
PANC-1 [9] = assay: Induction of cell morphological changes in human PANC1 cells assessed as loss of membrane integrity at 12.5 uM incubated for 24 hrs in nutrient deprived medium by acridine orange/ethidium bromide double staining-based fluorescence/phase contrast mode based EVOS FL digital microscopic analysis; format: functional
PANC-1 [10] = assay: Induction of cell death in nutrient deprived human PANC1 cells at 12.5 uM incubated for 24 hrs by acridine orange/ethidium bromide double staining-based fluorescence/phase contrast mode based EVOS FL digital microscopic analysis; format: functional
PANC-1 [11] = assay: Induction of cell morphological changes in nutrient deprived human PANC1 cells assessed as cell swelling at 25 uM incubated for 24 hrs by acridine orange/ethidium bromide double staining-based fluorescence/phase contrast mode based EVOS FL digital microscopic analysis; format: functional
PANC-1 [12] = assay: Induction of cell morphological changes in nutrient deprived human PANC1 cells assessed as cell rounding at 25 uM incubated for 24 hrs by acridine orange/ethidium bromide double staining-based fluorescence/phase contrast mode based EVOS FL digital microscopic analysis; format: functional
[13] = Trypanosoma cruzi, Tulahuen C4, L6, 96 h
[14] = Trypanosoma brucei, STIB900, 72 h
[15] = Leishmania donovani, MHOM-ET-67/L82, 72 h

For `COc1c2c(cc(O)c1-c1ccc(O)c3c(OC)cc(C)cc13)C[C@@H](C)N=C2C`, which Activity (PANC-1 [1]) is on record?
The Activity was “Dose-dependent effect”.

And the PC50 (PANC-1 [1])?
The PC50 was 37.8 µM.

And the Activity (PANC-1 [2])?
The Activity was “Non-Toxic”.

Which Activity (PANC-1 [1]) does the source give for `COc1c(-c2ccc(O)c3c(OC)cc(C)cc23)c(O)cc2c1[C@H](C)N[C@H](C)C2` here?
The Activity was “Dose-dependent effect”.

What about the PC50 (PANC-1 [1]) of the same compound?
Its PC50 is 33.4 µM.

And the Activity (PANC-1 [2])?
Its Activity is “Non-Toxic”.

With `COc1c(-c2ccc(OC)c3c(OC)cc(C)cc23)c(O)cc2c1[C@@H](C)N[C@H](C)C2` (single isomer, unassigned; atropisomer) [listing 1 of 2 here] as the compound, how does the Activity (PANC-1 [1]) read?
The Activity was “Dose-dependent effect”.

With `COc1c(-c2ccc(OC)c3c(OC)cc(C)cc23)c(O)cc2c1[C@@H](C)N[C@H](C)C2` [listing 1 of 2 here] as the compound, how does the Activity (PANC-1 [1]) read?
The Activity was “Dose-dependent effect”.

For `COc1cc2c(c(O)c1-c1ccc(OC)c3c(OC)cc(C)cc13)[C@@H](C)N[C@H](C)C2`, which IC50 (Plasmodium falciparum [3]; Plasmodium falciparum, K1) is on record?
Its IC50 is 8.2 µM.

What about the IC50 (Plasmodium falciparum [4]; Plasmodium falciparum, NF54) of the same compound?
The IC50 was 22.2 µM.

And the IC50 (Trypanosoma cruzi; [13])?
The IC50 was 225 µM.

What about the IC50 [5, 14] of the same compound?
Its IC50 is 106 µM.

And the IC50 (Leishmania donovani; [15])?
The IC50 was > 250 µM.

And the IC50 (L6; Rattus norvegicus, L6, 72 h)?
The IC50 was > 250 µM.

What about the selectivity ratio [6] of the same compound?
The selectivity ratio was > 30.

What about the Activity (PANC-1 [1]) of the same compound?
The Activity was “Dose-dependent effect”.

What about the PC50 (PANC-1 [1]) of the same compound?
Its PC50 is 60.4 µM.

What about the Activity (PANC-1 [2]) of the same compound?
The Activity was “Non-Toxic”.

For `COc1c(-c2ccc(OC)c3c(OC)cc(C)cc23)c(O)cc2c1[C@@H](C)N[C@H](C)C2` (single isomer, unassigned; atropisomer) [listing 2 of 2 here], which IC50 (Plasmodium falciparum [3]) is on record?
Its IC50 is 1.6 µM.

What about the IC50 (Plasmodium falciparum [4]) of the same compound?
Its IC50 is 6.3 µM.

What about the IC50 (Trypanosoma cruzi) of the same compound?
Its IC50 is 73.4 µM.

What about the IC50 [5] of the same compound?
Its IC50 is 9.8 µM.

What about the IC50 (Leishmania donovani) of the same compound?
The IC50 was 170 µM.

And the IC50 (L6; l6)?
The IC50 was 9.1 µM.

And the “Ratio IC50” value [6]?
Its value is 5.6.

And the PC50 (PANC-1 [1])?
The PC50 was 12.5 µM.

And the Activity (PANC-1 [2])?
Its Activity is “Non-Toxic”.

Which IC50 (Plasmodium falciparum [3]; Plasmodium falciparum, K1) does the source give for `COc1cc(O)c(-c2cc(-c3cc(-c4c(O)cc5c(c4OC)[C@H](C)N[C@H](C)C5)c4cc(C)cc(OC)c4c3O)c(O)c3c(OC)cc(C)cc23)c2c1[C@H](C)N[C@H](C)C2` here?
The IC50 was 0.0063 µM.

And the IC50 (L6; Rattus norvegicus, L6, 72 h)?
Its IC50 is 6 µM.

What about the selectivity ratio [6] of the same compound?
The selectivity ratio was 1000.

Which PC50 (PANC-1 [1]) does the source give for `COc1cc(C[C@H]2C(=O)OC[C@@H]2Cc2ccc(OC)c(OC)c2)ccc1O` [ARCTIGENIN] here?
The PC50 was 0.8 µM.

And the Activity (PANC-1 [2])?
The Activity was “Non-Toxic”.

Which IC50 (Plasmodium falciparum [3]; Plasmodium falciparum, K1) does the source give for `COc1c(-c2ccc(OC)c3c(OC)cc(C)cc23)c(O)cc2c1[C@@H](C)N[C@H](C)C2` [listing 2 of 2 here] here?
Its IC50 is 1.4 µM.

And the IC50 (Plasmodium falciparum [4]; Plasmodium falciparum, NF54)?
Its IC50 is 4.9 µM.

What about the IC50 (Trypanosoma cruzi; [13]) of the same compound?
Its IC50 is 123 µM.

What about the IC50 [5, 14] of the same compound?
The IC50 was 7.8 µM.

What about the IC50 (Leishmania donovani) of the same compound?
The IC50 was 53.4 µM.

And the IC50 (L6; l6)?
Its IC50 is 20.9 µM.

And the “Ratio IC50” value [6]?
Its value is 15.

What about the PC50 (PANC-1 [1]) of the same compound?
Its PC50 is 30.6 µM.

Which IC50 (Plasmodium falciparum [4]; Plasmodium falciparum, NF54) does the source give for `COc1c(-c2ccc(O)c3c(OC)cc(C)cc23)c(O)cc2c1[C@@H](C)N[C@H](C)C2` here?
Its IC50 is 0.84 µM.

What about the IC50 (Trypanosoma cruzi; [13]) of the same compound?
The IC50 was 102 µM.

What about the IC50 [5, 14] of the same compound?
Its IC50 is 9.4 µM.

And the IC50 (Leishmania donovani; [15])?
Its IC50 is > 250 µM.

What about the IC50 (L6; Rattus norvegicus, L6, 72 h) of the same compound?
Its IC50 is 47.7 µM.

And the selectivity ratio [7]?
Its selectivity ratio is 56.8.

What about the Activity (PANC-1 [1]) of the same compound?
Its Activity is “Dose-dependent effect”.

And the PC50 (PANC-1 [1])?
The PC50 was 9.9 µM.

What about the Activity (PANC-1 [8]) of the same compound?
The Activity was “Dose-dependent effect”.

What about the Activity (PANC-1 [9]) of the same compound?
Its Activity is “Active”.

And the Activity (PANC-1 [10])?
The Activity was “Active”.

And the Activity (PANC-1 [11])?
The Activity was 100%.

What about the Activity (PANC-1 [12]) of the same compound?
The Activity was 100%.

And the Activity (PANC-1 [2])?
Its Activity is “Non-Toxic”.

With `O=C(Cn1ccnc1[N+](=O)[O-])NCc1ccccc1` [BENZNIDAZOLE] as the compound, how does the IC50 (Trypanosoma cruzi; [13]) read?
The IC50 was 3.6 µM.
